Here are results for 20 molecules from US8889704B2 (Array BioPharma Inc., priority 2011, dated 2014).

What all share (assay type): biochemical
One assay addresses recombinant rat PIM-3 (Rattus norvegicus, UniProt O70444). The assay is described as follows: PIM-3 Assay (as Example A). The settings on record: averaged IC50; 30 μM ATP, 3.75 μM PIM2tide, 0.5 nM PIM-3. In short, it runs like this: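 Recombinant rat PIM-3 (0.5 nM) with 3.75 μM PIM2tide and 30 μM [γ-33P]ATP in MOPS pH 7.4 buffer, 60 min at 22 °C; labelled peptide captured on phosphocellulose filters and counted by scintillation. 10-point curve (top dose 10 μM, 2% DMSO); IC50 from 4-parameter fit of percent of control.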

The target of assay [1] is T1, GST-tagged recombinant full-length human Pim-2 (Homo sapiens, UniProt Q9P1W9).
T1 construct: GST-tagged recombinant full-length human Pim-2; GST
T1 sequence (Q9P1W9 whole entry): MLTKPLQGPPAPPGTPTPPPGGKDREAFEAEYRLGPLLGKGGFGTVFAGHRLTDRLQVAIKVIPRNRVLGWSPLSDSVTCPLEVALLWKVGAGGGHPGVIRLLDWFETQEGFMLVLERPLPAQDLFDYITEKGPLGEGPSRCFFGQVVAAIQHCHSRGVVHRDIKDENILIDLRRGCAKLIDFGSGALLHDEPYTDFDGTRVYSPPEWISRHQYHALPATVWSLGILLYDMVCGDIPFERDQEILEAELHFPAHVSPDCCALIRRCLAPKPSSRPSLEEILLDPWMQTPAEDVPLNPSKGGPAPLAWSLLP
The assay is described as follows: PIM-2 Assay (as Example A). Particulars: averaged IC50; 4 μM ATP, 1.0 μM PIM2tide, 1.5 nM Pim-2. In short, it runs like this:
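Radiometric filter-binding assay: GST-tagged full-length human Pim-2 (1.5 nM) phosphorylates 1.0 μM PIM2tide with 4 μM [γ-33P]ATP for 60 min at 22 °C in pH 7.4 MOPS buffer, 2% DMSO. 10-point 3-fold dilutions from 10 μM top dose; IC50 from 4-parameter fit of percent of control.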

In the next assay the target is PIM-1 (Homo sapiens, UniProt P11309). Nature of the assay: Enzyme PIM-1 Assay ([33P]ATP incorporation into PIM2tide, filter plate). The settings on record: averaged IC50; 35 μM ATP, 7.5 μM PIM2tide, 0.25 nM PIM-1, 60 min at 22° C. In short, it runs like this:
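Radiometric assay: 0.25 nM PIM-1 phosphorylates 7.5 μM PIM2tide with 35 μM [γ-33P]ATP in 20 mM MOPS pH 7.4, 10 mM MgCl2, 1 mM DTT, 0.005% Tween-20, 60 min at 22 °C. Product captured on P81 filters, scintillation counted; 10-point 3-fold curve from 10 μM top, 2% DMSO, IC50 by 4-parameter logistic fit of POC.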

Structures can show the parent of a compound that is named as a salt.

Chain of PIM-1 (P11309 whole entry, species assumed): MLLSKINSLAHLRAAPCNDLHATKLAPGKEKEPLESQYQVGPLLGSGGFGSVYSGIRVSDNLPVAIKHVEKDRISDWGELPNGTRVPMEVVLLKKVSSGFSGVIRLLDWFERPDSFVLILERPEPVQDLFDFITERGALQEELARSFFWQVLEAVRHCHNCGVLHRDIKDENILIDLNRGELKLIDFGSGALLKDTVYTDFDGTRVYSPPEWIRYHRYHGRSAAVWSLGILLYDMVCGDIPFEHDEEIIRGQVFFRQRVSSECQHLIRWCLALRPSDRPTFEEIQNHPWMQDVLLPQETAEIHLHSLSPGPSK

In general, IC50 refers to the point on the concentration scale where inhibition reaches its midpoint. Regarding `Cc1cccc2ccc(-c3nnc4ccc([C@@H](N5CC[C@H](N)C5)C(F)(F)F)cn34)nc12` [Example 183, (S)-1-((R)-2,2,2-trifluoro-1-(3-(8-methylquinolin-2-yl)-[1,2,4]triazolo[4,3-a]pyridin-6-yl)ethyl)pyrrolidin-3-amine dihydrochloride], the figures for the IC50 (at recombinant rat PIM-3; in assay [1]; against PIM-1) were 1.2 nM, more than 100 nM and 0.27 nM, respectively.

Turning to `COCCOc1ccc2ccc(-c3nnc4ccc([C@@H](N5CC[C@](C)(N)C5)C(F)(F)F)cn34)nc2c1` [Example 261, (S)-3-methyl-1-((R)-2,2,2-trifluoro-1-(3-(7-(2-methoxyethoxy)quinolin-2-yl)-[1,2,4]triazolo[4,3-a]pyridin-6-yl)ethyl)pyrrolidin-3-amine dihydrochloride], the IC50 at recombinant rat PIM-3 is 3.3 nM; in assay [1], more than 1000 nM; against PIM-1 it was 0.6 nM.

On to `COc1cccc2ccc(-c3nnc4ccc([C@@H](N5CC[C@@](N)(CF)C5)C(F)(F)F)cn34)nc12` (single isomer, unassigned) [Example 169], for which the half-inhibitory concentration (IC50) was 36 nM at recombinant rat PIM-3, more than 100 nM in assay [1] and 6.65 nM at PIM-1.

Take `N[C@@H]1CN([C@H](c2ccc3nnc(-c4ccc5cc(F)cc(C6CC6)c5n4)n3c2)C(F)(F)F)C[C@H]1O` [Example 181, (3R,4R)-4-amino-1-((R)-1-(3-(8-cyclopropyl-6-fluoroquinolin-2-yl)-[1,2,4]triazolo[4,3-a]pyridin-6-yl)-2,2,2-trifluoroethyl)pyrrolidin-3-ol dihydrochloride]: the IC50 at recombinant rat PIM-3 worked out at 2.7 nM; in assay [1], 96 nM; against PIM-1 it was 0.41 nM.

`COCCOc1cc2nc(-c3nnc4ccc([C@@H](N5CC[C@H](N)C5)C(F)(F)F)cn34)ccc2cc1F` [Example 120, (S)-1-((R)-2,2,2-trifluoro-1-(3-(6-fluoro-7-(2-methoxyethoxy)quinolin-2-yl)-[1,2,4]triazolo[4,3-a]pyridin-6-yl)ethyl)pyrrolidin-3-amine hydrochloride]: the IC50 on recombinant rat PIM-3 was 3 nM; in assay [1], more than 100 nM; on PIM-1, 0.47 nM.

Consider `COC[C@@H](C)Oc1cc(F)cc2ccc(-c3nnc4ccc([C@@H](N5CC[C@H](N)C5)C(F)(F)F)cn34)nc12` [Example 159, (S)-1-((R)-2,2,2-trifluoro-1-(3-(6-fluoro-8-((R)-1-methoxypropan-2-yloxy)quinolin-2-yl)-[1,2,4]triazolo[4,3-a]pyridin-6-yl)ethyl)pyrrolidin-3-amine dihydrochloride], for which the IC50 is 0.5 nM at recombinant rat PIM-3, 48 nM in assay [1] and 0.14 nM against PIM-1.

On to `N[C@H]1CCN([C@H](c2ccc3nnc(-c4ccc5cccc(OCCO)c5n4)n3c2)C(F)(F)F)C1` [Example 219, 2-(2-(6-((R)-1-((S)-3-aminopyrrolidin-1-yl)-2,2,2-trifluoroethyl)-[1,2,4]triazolo[4,3-a]pyridin-3-yl)quinolin-8-yloxy)ethanol dihydrochloride], for which the concentration for half-maximal inhibition (IC50) on recombinant rat PIM-3 was determined as 1.2 nM; in assay [1], 253 nM; against PIM-1, 0.26 nM.

In the case of `Cc1oc(=O)oc1COC(=O)N[C@H]1CCN([C@H](c2ccc3nnc(-c4ccc5cc(F)c(OCCO)cc5n4)n3c2)C(F)(F)F)C1` [Example 321, (5-methyl-2-oxo-1,3-dioxol-4-yl)methyl ((S)-1-((R)-2,2,2-trifluoro-1-(3-(6-fluoro-7-(2-hydroxyethoxy)quinolin-2-yl)-[1,2,4]triazolo[4,3-a]pyridin-6-yl)ethyl)pyrrolidin-3-yl)carbamate], the IC50 on recombinant rat PIM-3 worked out at 6.1 nM; in assay [1] it was 1820 nM; at PIM-1 it was 1.68 nM.

As to `COCCOc1ccc2ccc(-c3nnc4ccc([C@@H](N5CC[C@H](N)C5)C(F)(F)F)cn34)nc2c1` [Example 148, (S)-1-((R)-2,2,2-trifluoro-1-(3-(7-(2-methoxyethoxy)quinolin-2-yl)-[1,2,4]triazolo[4,3-a]pyridin-6-yl)ethyl)pyrrolidin-3-amine dihydrochloride], the results for the IC50 (on recombinant rat PIM-3; in assay [1]; against PIM-1) were 1.2 nM, more than 100 nM and 0.34 nM, respectively.

Regarding `CC(=O)N[C@H]1CCN(C(c2ccc3nnc(-c4ccc5cccc(OCC6CC6)c5n4)n3c2)C(F)(F)F)C1` (stereo partly drawn) [Example 50, N-((3S)-1-(1-(3-(8-(cyclopropylmethoxy)quinolin-2-yl)-[1,2,4]triazolo[4,3-a]pyridin-6-yl)-2,2,2-trifluoroethyl)pyrrolidin-3-yl)acetamide], the 50% inhibitory concentration (IC50) on recombinant rat PIM-3 is 41 nM; in assay [1], more than 100 nM; against PIM-1, 4.88 nM.

As for `CN[C@H]1CCN([C@H](c2ccc3nnc(-c4ccc5cccc(OC(C)C)c5n4)n3c2)C(F)(F)F)C1` [Example 36, (S)—N-methyl-1-((R)-2,2,2-trifluoro-1-(3-(8-isopropoxyquinolin-2-yl)-[1,2,4]triazolo[4,3-a]pyridin-6-yl)ethyl)pyrrolidin-3-amine dihydrochloride], the IC50 at recombinant rat PIM-3 turned out to be 2 nM; in assay [1] it was 32 nM; at PIM-1, 0.18 nM.

`N[C@@H]1CCN(C(c2ccc3nnc(-c4ccc5cccc(OCC6CC6)c5n4)n3c2)C(F)(F)F)C1` (stereo partly drawn) [Example 16, (3R)-1-(1-(3-(8-(cyclopropylmethoxy)quinolin-2-yl)-[1,2,4]triazolo[4,3-a]pyridin-6-yl)-2,2,2-trifluoroethyl)pyrrolidin-3-amine dihydrochloride]: the IC50 was found to be 6 nM on recombinant rat PIM-3, 140 nM in assay [1] and 0.28 nM at PIM-1.

For `CCC1(N)CCN([C@H](c2ccc3nnc(-c4ccc5cccc(OC)c5n4)n3c2)C(F)(F)F)C1` (single isomer, unassigned; diastereomer 1) [Example 242, dihydrochloride], the IC50 is 21 nM on recombinant rat PIM-3, more than 1000 nM in assay [1] and 4.2 nM against PIM-1.

As for `FC(F)(F)[C@@H](c1ccc2nnc(-c3ccc4cccc(C5CC5)c4n3)n2c1)N1C[C@@H]2C[C@H]1CN2` [Example 65, 2-(6-((R)-1-((1S,4S)-2,5-diazabicyclo[2.2.1]heptan-2-yl)-2,2,2-trifluoroethyl)-[1,2,4]triazolo[4,3-a]pyridin-3-yl)-8-cyclopropylquinoline dihydrochloride], the results for the IC50 (at recombinant rat PIM-3; in assay [1]; against PIM-1) were 2 nM, 18 nM and 1.45 nM, respectively.

For the molecule `CC(C)(C)c1cccc2ccc(-c3nnc4ccc([C@@H](N5C[C@@H](N)[C@@H](O)C5)C(F)(F)F)cn34)nc12` [Example 130, (3S,4R)-4-amino-1-((R)-1-(3-(8-tert-butylquinolin-2-yl)-[1,2,4]triazolo[4,3-a]pyridin-6-yl)-2,2,2-trifluoroethyl)pyrrolidin-3-ol dihydrochloride], the IC50 on recombinant rat PIM-3 was determined as 28 nM; in assay [1], 756 nM; on PIM-1 it was 9.03 nM.

On to `N[C@H]1CCN([C@H](c2ccc3nnc(-c4ccc5cccc(OCC6CC6)c5n4)n3c2)C(F)(F)F)C1` (single isomer, unassigned) [Example 11, dihydrochloride], for which the half-maximal inhibitory concentration (IC50) stood at 1.1 nM at recombinant rat PIM-3, 75 nM in assay [1] and 0.2 nM at PIM-1.

Take `COCCOc1cccc2ccc(-c3nnc4ccc([C@@H](N5CC[C@H](N)C5)C(F)(F)F)cn34)nc12` [Example 227, (S)-1-((R)-2,2,2-trifluoro-1-(3-(8-(2-methoxyethoxy)quinolin-2-yl)-[1,2,4]triazolo[4,3-a]pyridin-6-yl)ethyl)pyrrolidin-3-amine dihydrochloride]: the results for the IC50 (at recombinant rat PIM-3; in assay [1]; at PIM-1) were 2.5 nM, 453 nM and 0.48 nM, respectively.

On to `COCCOc1cc(F)cc2ccc(-c3nnc4ccc([C@@H](N5CC[C@H](N)C5)C(F)(F)F)cn34)nc12` [Example 98, (S)-1-((R)-2,2,2-trifluoro-1-(3-(6-fluoro-8-(2-methoxyethoxy)quinolin-2-yl)-[1,2,4]triazolo[4,3-a]pyridin-6-yl)ethyl)pyrrolidin-3-amine hydrochloride], for which the half-maximal inhibitory concentration (IC50) was 1.8 nM on recombinant rat PIM-3, more than 100 nM in assay [1] and 0.38 nM at PIM-1.

Turning to `COCC(C)(C)c1cccc2ccc(-c3nnc4ccc([C@@H](N5CC[C@H](N)C5)C(F)(F)F)cn34)nc12` [Example 105, (S)-1-((R)-2,2,2-trifluoro-1-(3-(8-(1-methoxy-2-methylpropan-2-yl)quinolin-2-yl)-[1,2,4]triazolo[4,3-a]pyridin-6-yl)ethyl)pyrrolidin-3-amine dihydrochloride], the 50% inhibitory concentration (IC50) at recombinant rat PIM-3 was 0.7 nM; in assay [1] it was 13 nM; against PIM-1, 0.04 nM.

On to `N[C@@H]1CCN([C@@H](c2ccc3nnc(-c4ccc5cccc(OCC6CC6)c5n4)n3c2)C(F)(F)F)C1` (single isomer, unassigned) [Example 23], for which the IC50 is 38 nM on recombinant rat PIM-3, 412 nM in assay [1] and 2.85 nM on PIM-1.
